# Laboratory results reported in PubChem BioAssay AID1963830 (Molecular Pharmacology Branch, DTP, NCI, 2024).
# pIC50: −log10 of the molar value.
# Tested on: 922993-354-T-J3-PDC complex spheroid viability
# Test: Anticancer human tumor 922993-354-T-J3-PDC patient-derived endometrial carcinoma cell line growth inhibition [POLQ]
# Details: for pIC50: curve of first compound; for viability, T/C: stronger effect = lower value
# Description: Multicellular complex tumor spheroid response to Polymerase (POL) inhibitors (novobiocin, ART-558, RP6685) in combination with a variety of drugs and investigational agents in selected tumor cell lines
# The POL inhibitors (novobiocin, ART-558, and RP6685) were evaluated both individually and in combination with standard of care and investigational anticancer small molecules within a complex spheroid model of solid tumors. . Complex spheroids include a stromal component modeled by human endothelial cells (HUVEC) and fibroblasts modeled by human mesenchymal stem cells (MSCs). The concentration ranges selected for each drug and investigational agent were based upon clinically achievable concentrations if the clinical Cmax of the agent was known.
# Compounds. The drugs and investigational agents: novobiocin (NSC847541), ART-558 (NSC835418), RP-6685 (NSC848927), peposertib (NSC802822), ceralasertib (NSC780249), elimusertib (NSC800525), camonsertib (NSC841442), AZD-1390 (NSC803789), olaparib (NSC753686), talazoparib (NSC767125), rucaparib (NSC756644), sotorasib (NSC818433), MRTX-1133 (NSC836407), SN-38 (NSC673596), topotecan (NSC609699), epotoside (NSC141540), doxorubicin (NSC123127), gemcitabine (NSC613327), 5-fluorouracil (NSC19893), paclitaxel (NSC125973), vemurafenib (NSC761431), MSA-2 (NSC828583), SN-011 (NSC837082), adavosertib (NSC754352), prexasertib (NSC758257), carboplatin (NSC241240) and oxaliplatin (NSC266046), were obtained from the National Cancer Institute (NCI) Developmental Therapeutics Program Chemical Repository (21). The FDA-approved anticancer drug set is available from the Developmental Therapeutics Program at https://dtp.cancer.gov/organization/dscb/obtaining/. […] The stock solutions were prepared in dimethyl sulfoxide (DMSO, Sigma-Aldrich, St. Louis, MO, cat. D2650), except for the platinum compounds which were prepared in saline (Quality Biological, Gaithersburg, MD, cat. 114-055-101), at 800-fold the tested concentration and stored at -70 degrees C prior to their use. All drugs and investigational agents were tested over a range starting from a high concentration at or near the clinical Cmax and decreasing in half-log increments. If the clinical Cmax for an agent had not been determined, the highest concentration tested was 10 microM, except for SN-38, which was tested at a high concentration of 1 microM.
# Cell Culture. All cells were maintained in an incubator at 37 degrees C and 5% CO2 with 95% humidity. The PDC lines were cultured according to standard operating procedures established by the NCI PDMR (https://pdmr.cancer.gov). Table 3 of the manuscript, lists the cell lines along with the number of the three cell types plated to form the mct-spheroids and media for tumor cell growth. After thawing, all PDC lines, except 997537-175-T-J1-PDC and 415267-285-R-J2-PDC, were cultured in Matrigel-coated flasks prepared with a working solution of 1X Ham's F-12 nutrient mix, without supplementation (Thermo Fisher Scientific, cat. 11765054), 100 U/mL penicillin-streptomycin (Thermo Fisher Scientific, cat. 15140122), and 2.5% Matrigel (Corning Inc., Corning, NY, cat. 354248) for the first three passages. The two PDC lines 997537-175-T-J1-PDC and 415267-285-R-J2-PDC were cultured on uncoated flasks. The 857933-349-R-J2-PDC line was cultured in 6C/Colon 1B media containing advanced DMEM/F-12 (Thermo Fisher Scientific, cat. 12634028), 10 mM HEPES (Thermo Fisher Scientific, cat. 15630080), 1X GlutaMAX supplement (Thermo Fisher Scientific, cat. 35050061), 0.1 mg/mL primocin (InvivoGen, San Diego, CA, cat. ant-pm-2), 10% defined fetal bovine serum, heat inactivated (HyClone Laboratories Inc., Logan, UT, cat. SH30070.03HI), 50% L-WRN conditioned media (ATCC, cat. CRL-3276), 1.25 mM N-Acetyl-L-cysteine (Sigma-Aldrich, cat. A9165), 10 mM nicotinamide (Sigma-Aldrich, cat. N0636), 1X B-27 supplement (Thermo Fisher Scientific, cat. 17504044), 1X N-2 supplement (Thermo Fisher Scientific, cat. […]
# [1] = second compound 0.0316 µM, first compound 0.0316 µM
# [2] = second compound 0.0316 µM, first compound 0.1 µM
# [3] = second compound 0.0316 µM, first compound 0.316 µM
# [4] = second compound 0.0316 µM, first compound 1 µM
# [5] = second compound 0.0316 µM, first compound 3.16 µM
# [6] = second compound 0.0316 µM, first compound 10 µM
# [7] = second compound 0.1 µM, first compound 0.0316 µM
# [8] = second compound 0.1 µM, first compound 0.1 µM
# [9] = second compound 0.1 µM, first compound 0.316 µM
# [10] = second compound 0.1 µM, first compound 1 µM
# [11] = second compound 0.1 µM, first compound 3.16 µM
# [12] = second compound 0.1 µM, first compound 10 µM
# [13] = second compound 0.316 µM, first compound 0.0316 µM
# [14] = second compound 0.316 µM, first compound 0.1 µM
# [15] = second compound 0.316 µM, first compound 0.316 µM
# [16] = second compound 0.316 µM, first compound 1 µM
# [17] = second compound 0.316 µM, first compound 3.16 µM
# [18] = second compound 0.316 µM, first compound 10 µM
# [19] = second compound 1 µM, first compound 0.0316 µM
# [20] = second compound 1 µM, first compound 0.1 µM
# [21] = second compound 1 µM, first compound 0.316 µM
# [22] = second compound 1 µM, first compound 1 µM
# [23] = second compound 1 µM, first compound 3.16 µM
# [24] = second compound 1 µM, first compound 10 µM
# [25] = second compound 3.16 µM, first compound 0.0316 µM
# [26] = second compound 3.16 µM, first compound 0.1 µM
# [27] = second compound 3.16 µM, first compound 0.316 µM
# [28] = second compound 3.16 µM, first compound 1 µM
# [29] = second compound 3.16 µM, first compound 3.16 µM
# [30] = second compound 3.16 µM, first compound 10 µM
# [31] = second compound 10 µM, first compound 0.0316 µM
# [32] = second compound 10 µM, first compound 0.1 µM
# [33] = second compound 10 µM, first compound 0.316 µM
# [34] = second compound 10 µM, first compound 1 µM
# [35] = second compound 10 µM, first compound 3.16 µM
# [36] = second compound 10 µM, first compound 10 µM
# 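Also: spheroids exposed to the agents for one week.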
# 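For viability, T/C in this document: 100% = DMSO vehicle control wells.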
smiles,measurement,setting,value
C=CC(=O)N1CCN(c2nc(=O)n(-c3c(C)ccnc3C(C)C)c3nc(-c4c(O)cccc4F)c(F)cc23)C(C)C1 (stereo unspecified) + Cc1cccc(N(C)C(=O)C2C(O)CCN2c2nc(C)cc(C(F)(F)F)c2C#N)c1,pIC50,second compound 0.0316 µM,< 5.00
same,pIC50,second compound 0.1 µM,< 5.00
same,pIC50,second compound 0.316 µM,< 5.00
same,pIC50,second compound 1 µM,< 5.00
same,pIC50,second compound 3.16 µM,< 5.00
same,pIC50,second compound 10 µM,< 5.00
same,"viability, T/C",[1],100%
same,"viability, T/C",[2],105%
same,"viability, T/C",[3],106%
same,"viability, T/C",[4],113%
same,"viability, T/C",[5],102%
same,"viability, T/C",[6],93.2%
same,"viability, T/C",[7],104%
same,"viability, T/C",[8],103%
same,"viability, T/C",[9],103%
same,"viability, T/C",[10],108%
same,"viability, T/C",[11],97.8%
same,"viability, T/C",[12],102%
same,"viability, T/C",[13],105%
same,"viability, T/C",[14],99.2%
same,"viability, T/C",[15],103%
same,"viability, T/C",[16],104%
same,"viability, T/C",[17],92.2%
same,"viability, T/C",[18],96.8%
same,"viability, T/C",[19],103%
same,"viability, T/C",[20],95.2%
same,"viability, T/C",[21],100%
same,"viability, T/C",[22],102%
same,"viability, T/C",[23],101%
same,"viability, T/C",[24],105%
same,"viability, T/C",[25],108%
same,"viability, T/C",[26],103%
same,"viability, T/C",[27],102%
same,"viability, T/C",[28],98.9%
same,"viability, T/C",[29],102%
same,"viability, T/C",[30],106%
same,"viability, T/C",[31],93.7%
same,"viability, T/C",[32],101%
same,"viability, T/C",[33],97.9%
same,"viability, T/C",[34],99.8%
same,"viability, T/C",[35],111%
same,"viability, T/C",[36],112%
CC1COCCN1c1cc(C2(S(C)(=N)=O)CC2)nc(-c2ccnc3[nH]ccc23)n1 (stereo unspecified) + Cc1cccc(N(C)C(=O)C2C(O)CCN2c2nc(C)cc(C(F)(F)F)c2C#N)c1,pIC50,second compound 0.0316 µM,< 5.00
same,pIC50,second compound 0.1 µM,< 5.00
same,pIC50,second compound 0.316 µM,< 5.00
same,pIC50,second compound 1 µM,< 5.00
same,pIC50,second compound 3.16 µM,5.09
same,pIC50,second compound 10 µM,5.31
same,"viability, T/C",[1],99.8%
same,"viability, T/C",[2],95.3%
same,"viability, T/C",[3],95%
same,"viability, T/C",[4],105%
same,"viability, T/C",[5],93.3%
same,"viability, T/C",[6],53%
same,"viability, T/C",[7],112%
same,"viability, T/C",[8],95.4%
same,"viability, T/C",[9],97.1%
same,"viability, T/C",[10],99.7%
same,"viability, T/C",[11],82.6%
same,"viability, T/C",[12],62.9%
same,"viability, T/C",[13],102%
same,"viability, T/C",[14],100%
same,"viability, T/C",[15],104%
same,"viability, T/C",[16],101%
same,"viability, T/C",[17],77.5%
same,"viability, T/C",[18],56.8%
same,"viability, T/C",[19],96.5%
same,"viability, T/C",[20],105%
same,"viability, T/C",[21],99.3%
same,"viability, T/C",[22],88.9%
same,"viability, T/C",[23],86.9%
same,"viability, T/C",[24],56%
same,"viability, T/C",[25],101%
same,"viability, T/C",[26],96.8%
same,"viability, T/C",[27],103%
same,"viability, T/C",[28],93.1%
same,"viability, T/C",[29],85.7%
same,"viability, T/C",[30],42.1%
same,"viability, T/C",[31],98.5%
same,"viability, T/C",[32],94%
same,"viability, T/C",[33],96.8%
same,"viability, T/C",[34],91.5%
same,"viability, T/C",[35],71.4%
same,"viability, T/C",[36],14.7%
CCCS(=O)(=O)Nc1ccc(F)c(C(=O)c2c[nH]c3ncc(-c4ccc(Cl)cc4)cc23)c1F + Cc1cccc(N(C)C(=O)C2C(O)CCN2c2nc(C)cc(C(F)(F)F)c2C#N)c1,pIC50,second compound 0.0316 µM,< 5.00
same,pIC50,second compound 0.1 µM,< 5.00
same,pIC50,second compound 0.316 µM,< 5.00
same,pIC50,second compound 1 µM,< 5.00
same,pIC50,second compound 3.16 µM,< 5.00
same,pIC50,second compound 10 µM,< 5.00
same,"viability, T/C",[1],103%
same,"viability, T/C",[2],99.5%
same,"viability, T/C",[3],103%
same,"viability, T/C",[4],98.1%
same,"viability, T/C",[5],106%
same,"viability, T/C",[6],97.5%
same,"viability, T/C",[7],101%
same,"viability, T/C",[8],102%
same,"viability, T/C",[9],103%
same,"viability, T/C",[10],100%
same,"viability, T/C",[11],102%
same,"viability, T/C",[12],90.1%
same,"viability, T/C",[13],104%
same,"viability, T/C",[14],101%
same,"viability, T/C",[15],105%
same,"viability, T/C",[16],104%
same,"viability, T/C",[17],103%
same,"viability, T/C",[18],95.8%
same,"viability, T/C",[19],102%
same,"viability, T/C",[20],99.8%
same,"viability, T/C",[21],100%
same,"viability, T/C",[22],103%
same,"viability, T/C",[23],105%
same,"viability, T/C",[24],95%
same,"viability, T/C",[25],102%
same,"viability, T/C",[26],103%
same,"viability, T/C",[27],101%
same,"viability, T/C",[28],97.7%
same,"viability, T/C",[29],107%
same,"viability, T/C",[30],94.5%
same,"viability, T/C",[31],98.6%
same,"viability, T/C",[32],103%
same,"viability, T/C",[33],104%
same,"viability, T/C",[34],100%
same,"viability, T/C",[35],108%
same,"viability, T/C",[36],93.2%
